Tested on: 293T cells
Assay type: cell-based

C=C(C)[C@@H]1CCC(C)=C[C@H]1c1c(O)cc(CCCCC)cc1O [CBD, cannabidiol]
production of gectosomes encapsulated Nluc cargo: induces an elevated production

— patent publication US20250177555A1 (priority 2022, published 2025)
